Test results: the NIST ThermoML archive (doi:10.1021/je050317k)
± gives the expanded uncertainty stated by the source.

Settings: Liquid

In the case of `CC(Cl)CCl` (stereo unspecified) [1,2-dichloropropane], the “vapor or sublimation pressure” value (333.15 K) is reported as 30.14 ± 0.27 kPa and the “vapor or sublimation pressure” value (353.15 K) is reported as 61.07 ± 0.44 kPa.

With `OCCCCO` [1,4-butanediol] the “vapor or sublimation pressure” value (383.15 K) was 0.664 ± 0.064 kPa.

In the case of `C=CCCC=C` [1,5-hexadiene], the “vapor or sublimation pressure” value (333.15 K) is reported as 103.15 ± 1.3 kPa and the “vapor or sublimation pressure” value (373.1 K) is reported as 316.61 ± 2.2 kPa.

In the case of `CC(=O)OC(C)C` [1-methylethyl ethanoate], the “vapor or sublimation pressure” value (333.15 K) is reported as 37.73 ± 0.44 kPa, the “vapor or sublimation pressure” value (393.15 K) is reported as 249.59 ± 1.8 kPa and the “vapor or sublimation pressure” value (453.15 K) is reported as 939.9 ± 6 kPa.

In the case of `CC(C)C` [2-methylpropane], the “vapor or sublimation pressure” value (298.15 K) is reported as 352.39 ± 2.8 kPa and the “vapor or sublimation pressure” value (348.15 K) is reported as 1212.7 ± 7.9 kPa.

With `C=CCCl` [3-chloro-1-propene] the “vapor or sublimation pressure” value (333.15 K) was 164.65 ± 1.6 kPa and the “vapor or sublimation pressure” value (373.1 K) was 489.25 ± 3.4 kPa.

In the case of `Cl/C=C\CCl` [(Z)-1,3-dichloro-1-propene], the “vapor or sublimation pressure” value (333.15 K) is reported as 22.61 ± 0.25 kPa and the “vapor or sublimation pressure” value (353.15 K) is reported as 47.29 ± 0.42 kPa.

For `CC#N` [acetonitrile], the “vapor or sublimation pressure” value (333.15 K) was 49.16 ± 0.53 kPa, the “vapor or sublimation pressure” value (393.15 K) was 297.37 ± 2.1 kPa and the “vapor or sublimation pressure” value (453.15 K) was 1096.9 ± 7 kPa.

For `CC(=O)c1ccccc1` [acetophenone], the “vapor or sublimation pressure” value (373.1 K) was 3.573 ± 0.091 kPa and the “vapor or sublimation pressure” value (433.15 K) was 32.02 ± 0.24 kPa.

For `C=CCl` [chloroethene], the “vapor or sublimation pressure” value (273.1 K) was 172 ± 1.8 kPa and the “vapor or sublimation pressure” value (313.15 K) was 601.5 ± 4 kPa.

With `C1CO1` [oxirane] the “vapor or sublimation pressure” value (298.15 K) was 174.71 ± 1.6 kPa and the “vapor or sublimation pressure” value (348.15 K) was 766.7 ± 5 kPa.

For `Oc1ccccc1` [phenol], the “vapor or sublimation pressure” value (373.1 K) was 5.506 ± 0.12 kPa and the “vapor or sublimation pressure” value (433.15 K) was 53.23 ± 0.37 kPa.

For `O=C1CCCO1` [γ-butyrolactone], the “vapor or sublimation pressure” value (383.15 K) was 5.15 ± 0.087 kPa.
